These results are taken from patent publication US6663897B2, “Oral itraconazole formulations and methods of making the same” (DSM IP Assets B.V., priority 2001, dated 2003).

Series [1] is described as follows: Stability study under accelerated conditions (ICH guidelines). The conditions noted are these: three months. The series is classed as physicochemical. Here is the method: The batch samples prepared under Example 1 were evaluated for stability under accelerated conditions under ICH guidelines and three months stability results are furnished in Table 4. Physical Examination Specification: Size 0 elongated hard gelatin capsule with an opaque white cap and a natural body. Capsules were substantially free from rough edges and spots and were filled with off white colored coated microcrystalline cellulose spheres.

For series [2] the following is noted: cited from earlier work.

As to `CCC(C)n1ncn(-c2ccc(N3CCN(c4ccc(OCC5COC(Cn6cncn6)(c6ccc(Cl)cc6Cl)O5)cc4)CC3)cc2)c1=O` (racemic) [Itraconazole, (±)-cis-4-[4-[4-[4-[[2-(2,4-dichlorophenyl)-2-(1H-1,2,4-triazol-1-ylmethyl)-1,3-dioxolan-4-yl]methoxy]phenyl]-1-piperazinyl]phenyl]-2,4-dihydro-2-(1-methylpropyl)-3H-1,2,4-triazol-3-one], the degradation of itraconazole result in series [1] was “no significant degradation”. The “0.1 N Hydrochloric acid solubility” value in series [2] (0.1 N Hydrochloric acid) was under 6 micrograms per milliliter. Further, in series [2] (water), the water solubility result was “less than 1 microgram per milliliter”.
